Assay results taken from ChEMBL document CHEMBL5131378, “Kinases as Potential Therapeutic Targets for Anti-coronaviral Therapy” (J Med Chem, 2022).

Tests used:
[1] = tested on: Middle East respiratory syndrome-related coronavirus; experiment: Antiviral activity against MERS-CoV; format: functional, organism-based
[2] = tested on: SARS-CoV-2; format: functional, organism-based, Vero E6; conditions: Severe acute respiratory syndrome coronavirus 2, Vero C1008, 72 h
[3] = tested on: SARS-CoV-2; format: functional, Severe acute respiratory syndrome coronavirus 2, Vero E6; conditions: time 72 hrs
[4] = biological target: Replicase polyprotein 1ab (Severe acute respiratory syndrome coronavirus 2, UniProt P0DTD1); experiment: Inhibition of SARS-CoV-2 M-protease
[5] = tested on: SARS-CoV-2; format: functional, organism-based, Vero E6; conditions: Severe acute respiratory syndrome coronavirus 2, Vero C1008
[6] = tested on: SARS-CoV-2; format: functional, organism-based; conditions: Severe acute respiratory syndrome coronavirus 2, A549-ACE2
[7] = tested on: SARS-CoV; experiment: Antiviral activity against SARS-CoV in 24 hrs pretreated primary human liver spheroids assessed as reduction in viral load at 400 to 500 nM measured after 48 hrs; format: functional, Severe acute respiratory syndrome-related coronavirus; design: scale not given: the % may be the effect or the level left; conditions: dose 400-500 nM, time 72 hrs
[8] = tested on: Middle East respiratory syndrome-related coronavirus; experiment: Antiviral activity against MERS-CoV infected in 1 hr pretreated human Huh-7 cells assessed as inhibition of viral growth at 10 uM measured after 48 hrs by plaque reduction assay relative to control; format: functional; conditions: time 49 hrs
[9] = tested on: SARS-CoV-2; experiment: microbe, parasite or virus in culture; conditions: Severe acute respiratory syndrome coronavirus 2
[10] = tested on: Murine coronavirus; experiment: Antiviral activity against mCoV; format: functional, organism-based
[11] = in vitro; conditions: human, Huh-7 cells
[12] = tested on: Middle East respiratory syndrome-related coronavirus; experiment: microbe, parasite or virus in culture; conditions: Huh-7, 72 h
[13] = tested on: Human coronavirus 229E; experiment: Antiviral activity against hCoV-229e at 4 uM assessed as reduction of viral RNA relative to control; format: functional; design: scale not given: the % may be the effect or the level left

Cn1nc(C(C)(C)C)cc1NC(=O)Nc1ccc(Oc2ccncc2)cc1
IC50 [1]: 4630 nM

CCN1CCN(Cc2ccc(Nc3ncc(F)c(-c4cc(F)c5nc(C)n(C(C)C)c5c4)n3)nc2)CC1 [ABEMACICLIB]
EC50 [2]: 2160 nM
Activity [3]: 60%

O=C1Cc2c([nH]c3ccc([N+](=O)[O-])cc23)-c2ccccc2N1 [ALSTERPAULLONE]
IC50 [4]: 1500 nM

Cc1cccc(/C=N/Nc2cc(N3CCOCC3)nc(OCCc3ccccn3)n2)c1 [APILIMOD]
IC50 [5]: < 80 nM
IC50 [6]: 7 nM

CC(C)Cn1ncc2cc(Oc3ccc(F)cc3F)c(C(=O)NCCN(C)C)cc21 [ARRY-797]
IC50 [1]: 913 nM

CNS(=O)(=O)Nc1nccc(Cc2c(C)c3ccc(Oc4ncccn4)cc3oc2=O)c1F [AVUTOMETINIB]
IC50 [2]: 600 nM

CCS(=O)(=O)N1CC(CC#N)(n2cc(-c3ncnc4[nH]ccc34)cn2)C1 [BARICITINIB]
Activity [7]: 30%

CCc1cnn2c(NCc3ccc[n+]([O-])c3)cc(N3CCCC[C@H]3CCO)nc12 [DINACICLIB]
IC50 [5]: 270 nM
IC50 [6]: 32 nM

CO[C@H]1C[C@@H]2CC[C@@H](C)[C@@](O)(O2)C(=O)C(=O)N2CCCC[C@H]2C(=O)O[C@H]([C@H](C)C[C@@H]2CC[C@@H](OCCO)[C@H](OC)C2)CC(=O)[C@H](C)/C=C(\C)[C@@H](O)[C@@H](OC)C(=O)[C@H](C)C[C@H](C)/C=C/C=C/C=C/1C [EVEROLIMUS]
inhibition at 10 µM [8]: 56%

CCc1nc(C(N)=O)c(Nc2ccc(N3CCC(N4CCN(C)CC4)CC3)c(OC)c2)nc1NC1CCOCC1 [GILTERITINIB]
IC50 [1]: 807 nM
IC50 [9]: 807 nM

CC(C)=CCC[C@](C)(O)[C@H]1CC[C@]2(C)[C@@H]1[C@H](O)C[C@@H]1[C@@]3(C)CC[C@H](O)C(C)(C)[C@@H]3[C@@H](O[C@@H]3O[C@H](CO)[C@@H](O)[C@H](O)[C@H]3O[C@@H]3O[C@H](CO)[C@@H](O)[C@H](O)[C@H]3O)C[C@]12C [GINSENOSIDE RF]
IC50 [10]: 10000 nM

O=C1Cc2c([nH]c3ccc(Br)cc23)-c2ccccc2N1 [KENPAULLONE]
IC50 [4]: 1500 nM

NC(=O)N1CCC(CC(=O)N2CCC([C@H]3c4ncc(Br)cc4CCc4cc(Cl)cc(Br)c43)CC2)CC1 [LONAFARNIB]
IC50 [2]: 4990 nM

CCCCCCCCCCCCCCCCOP(=O)([O-])OCC[N+](C)(C)C [MILTEFOSINE]
inhibition at 10 µM [8]: 28%

COc1ncc(-c2ccc3nccc(-c4ccnnc4)c3c2)cc1NS(=O)(=O)c1ccc(F)cc1F [OMIPALISIB]
IC50 [2]: 14 nM

C=CC(=O)Nc1cc(Nc2nccc(-c3cn(C)c4ccccc34)n2)c(OC)cc1N(C)CCN(C)C [OSIMERTINIB]
IC50 [2]: 3980 nM

CC(C)(C)Cn1c(N)nc2ccc(-c3[nH]c(C(C)(C)C)nc3-c3ccc(F)cc3)nc21 [RALIMETINIB]
IC50 [1]: 873 nM

CN1CCN(CCOc2cc(OC3CCOCC3)c3c(Nc4c(Cl)ccc5c4OCO5)ncnc3c2)CC1 [SARACATINIB]
CC50 [11]: > 50000 nM
EC50 [12]: 2900 nM

C[S+]([O-])c1ccc(-c2nc(-c3ccc(F)cc3)c(-c3ccncc3)[nH]2)cc1 (configuration not stated) [SB-203580]
Activity [13]: 60%

O=C(O)c1ccc2c(c1)nc(Nc1cccc(Cl)c1)c1ccncc12 [SILMITASERTIB]
IC50 [9]: 1280 nM

CO[C@H]1C[C@@H]2CC[C@@H](C)[C@@](O)(O2)C(=O)C(=O)N2CCCC[C@H]2C(=O)O[C@H]([C@H](C)C[C@@H]2CC[C@@H](O)[C@H](OC)C2)CC(=O)[C@H](C)/C=C(\C)[C@@H](O)[C@@H](OC)C(=O)[C@H](C)C[C@H](C)/C=C/C=C/C=C/1C [SIROLIMUS]
inhibition at 10 µM [8]: 40%

COC[C@H]1OC(=O)c2coc3c2[C@@]1(C)C1=C(C3=O)[C@@H]2CCC(=O)[C@@]2(C)C[C@H]1OC(C)=O [WORTMANNIN]
inhibition at 10 µM [8]: 40%
